# Reference: patent US11253519B2, “Composition used to improve symptoms of autism spectrum disorder, and method using same for improving symptoms of autism spectrum disorder” (RENASCIENCE CO., LTD., priority 2016, dated 2022)
# Columns and labels:
# ASD patient = assay: PARS-TR rating (items 25 to 57, each 0 none, 1 somewhat noticeable, 2 noticeable) in ASD patients before and after intake; format: in vivo, human
# Excerpt: PARS (Pervasive Developmental Disorder Autism Society Japan Rating Scale) is a scale composed of 57 items to determine the characteristics in pervasive developmental disorder (PDD) (which may hereinafter also simply be referred to as “PDD”), and to evaluate the support difficulty by interviewing the mothers of the subjects (or other rearer, if it is difficult to obtain information from the mother of a subject); PARS-TR is its revised version. The revised version contains revised wording of the commentary of question items, while maintaining the reliability and validity of the rating scale of the former PARS. On a side note, question items and rating in PARS-TR, PARS-TR items rated for each age group, a score calculation method, and an ASD characteristics test method are detailed in PARS-TR PARS Text Revision (written and edited by Hattatsu Shogai Shien no tameno Hyoka Kenkyu Kai [Study of the Assessment for Supporting Developmental Disorder], a general incorporated association, Spectrum Publishing Company), the disclosure of which is incorporated herein by reference.
# FIG. 3 illustrates 57 rating items prescribed in PARS-TR. The rating items vary depending on the age group of targets for diagnosis (children before school age (early childhood), elementary school students (childhood), and junior high-school students or older subjects (early adolescence or adulthood)). Items 1 to 34 are directed to those in early childhood. Items 1 to 34 are intended to assess the peak in early childhood (assessment for most noticeable symptoms in early childhood) of all subjects (children before school age, elementary school students, and junior high-school students or older subjects), and also to assess the current condition of subjects in early childhood. Peak assessment and current condition assessment are performed for young children because, for example, clear autistic symptoms before the age of 4 years may be alleviated after age 5. Young children are not assessed by items 35 to 57. Elementary school students are assessed by items 1 to 34 for early childhood to determine the peak in early childhood, and items 21 to 53 for childhood to determine the current condition. Junior high-school students or older subjects are assessed by the 34 items for early childhood to determine the peak in early childhood, and items 25 to 57 for early adolescence or adulthood to determine the current condition. The specific evaluation method is described in detail in Example 2.
# Assessment by PARS-TR is performed by questioning the mother or someone else regarding the severity of symptoms concerning development and behaviors described in rating items in terms of “assessment of the peak in early childhood” and “assessment of the current condition,” and the answer was classified into the following 3 levels and assessed: “0=none (no symptoms asked were observed/no),” “1=somewhat noticeable (symptoms asked were sometimes (somewhat) observed/yes),” and “2=noticeable (symptoms asked were often (quite) observed/yes).” The PARS-TR score is a value determined by simply summing up the assessment score of each item, excluding items that cannot be assessed. Specifically, the cutoff value at which the subject is diagnosed with PDD is score 9 in early childhood, score 13 in childhood, and score 20 in early adolescence or adulthood.
# […] The total scores were compared.
# The symptoms of ASD of the ASD patient were assessed based on the scores of ABC-J, PARS-TR, and RSB-R (Japanese version) by a medical doctor who is a researcher of ASD.
# [1] = Vitamin B1 level in whole blood, serum pyridoxamine and pyridoxal levels and Wernicke's encephalopathy in two test subjects on pyridoxamine medication; format: in vivo, human
# [2] = case 2, 600 mg/day oral + fursultiamine 25 mg/day, 17 Days After Administration, Before Administration: 0
# [3] = case 2, 600 mg/day oral + fursultiamine 25 mg/day, 17 Days After Administration, Before Administration: 1
# [4] = case 2, 600 mg/day oral + fursultiamine 25 mg/day, 17 Days After Administration, Before Administration: 2
# [5] = case 3, 800 mg/day oral + fursultiamine 25 mg/day, 8 weeks after the intake, before intake: rating 1
compound,measurement,setting,value
Cc1ncc(CO)c(CN)c1O.Cl.Cl [pyridoxamine dihydrochloride],"PARS-TR item 27: Having negative lifestyle habits, and being incapable of living independently",ASD patient; [2],0
same,"PARS-TR item 29: Showing extreme pickiness in food, with no extremely narrow range of food choice",ASD patient; [2],0
same,PARS-TR item 31: Being insensitive or sensitive to pain or heat,ASD patient; [2],0
same,PARS-TR item 32: Being terrified of nothing,ASD patient; [2],0
same,"PARS-TR item 34: Showing self-harming behaviors, such as hitting the head on the wall or biting the hand",ASD patient; [2],0
same,PARS-TR item 39: Having difficulty understanding what is said from one situation to another,ASD patient; [2],0
same,"PARS-TR item 40: Using big words, but not fully understanding the meaning thereof",ASD patient; [2],0
same,PARS-TR item 41: Difficulty understanding who is talking to who in a large group conversation,ASD patient; [2],0
same,PARS-TR item 42: Being incapable of explaining how and why,ASD patient; [2],0
same,PARS-TR item 47: Enacting a familiar scene from a TV show alone,ASD patient; [2],0
same,PARS-TR item 48: Persistently and repeatedly harassing someone on purpose,ASD patient; [2],0
same,PARS-TR item 49: Always wanting to be the best,ASD patient; [2],0
same,"PARS-TR item 50: Showing tic symptoms (e.g., blinking, head movements, abuseful language)",ASD patient; [2],0
same,PARS-TR item 51: Being restless in a manner inappropriate for the context,ASD patient; [2],0
same,"PARS-TR item 53: Showing behavioral arrest, and becoming incapable of moving to the next act fo frozen",ASD patient; [2],0
same,PARS-TR item 25: Persistently asking the same question,ASD patient; [3],0
same,PARS-TR item 26: Showing confusion when regular daily routine of procedures suddnly change,ASD patient; [3],1
same,PARS-TR item 33: Suddenly crying or becoming upset,ASD patient; [3],0
same,PARS-TR item 36: Showing self-centered behaviors without regard for surrounding people,ASD patient; [3],0
same,PARS-TR item 37: Showing interactive behaviors inappropriate for the context when approached by someone,ASD patient; [3],1
same,PARS-TR item 38: Interacting with others only when having a request,ASD patient; [3],0
same,PARS-TR item 43: Speaking in a unnatural and monotonous tone,ASD patient; [3],1
same,PARS-TR item 44: Having difficulty understanding another person's feeling or point of view,ASD patient; [3],0
same,"PARS-TR item 45: Having difficulty understanding jokes and irony, and interpreting them literally",ASD patient; [3],1
same,"PARS-TR item 52: Being very careless, unable to behave appropriately for the context",ASD patient; [3],0
same,PARS-TR item 54: Appearing unashamed,ASD patient; [3],1
same,PARS-TR item 55: Being easily deceived,ASD patient; [3],1
same,"PARS-TR item 56: Being likely to feel victimized, suspicious, or aggressive",ASD patient; [3],0
same,"PARS-TR item 57: Being emotionally unstable, and showing frequent emotional ups and downs",ASD patient; [3],0
same,PARS-TR item 28: Becoming mentally unstable when recalling bad events in the past,ASD patient; [4],1
same,PARS-TR item 30: Being disgusted with a particular sound,ASD patient; [4],1
same,"PARS-TR item 46: Being keen on acquiring knowledge in a particular field, such as the names of places or train stations",ASD patient; [4],1
same,PARS-TR Total Score of Items 25 to 57,"ASD patient; case 2, 600 mg/day oral + fursultiamine 25 mg/day, 17 Days After Administration, Before Administration: 22, cutoff 20 or more",11
same,severity of hypersensibility,"ASD patient; case 3, 800 mg/day oral + fursultiamine 25 mg/day, 8 weeks",lowered the severity of hypersensibility
same,PARS-TR item 31 rating (insensitive to pain),ASD patient; [5],1
same,"PARS-TR item 32 rating (frightened by wipers, ceiling fan)",ASD patient; [5],0
same,PARS-TR item 30 rating (hyperacusis),"ASD patient; case 3, 800 mg/day oral + fursultiamine 25 mg/day, 8 weeks after the intake, before intake: rating 2",1
same,PARS-TR current score in early adolescence or adulthood,"ASD patient; case 3, 800 mg/day oral + fursultiamine 25 mg/day, 18 weeks after the intake, before intake: 21, cutoff score 20",14
same,concentration at 4 weeks,"[1]; human, serum, oral, subject ID No. 3, 4 weeks after start of administration",1540 ng/mL
same,concentration at 12 weeks,"[1]; human, serum, oral, subject ID No. 3, 12 weeks after start, with fursultiamine 75 mg/day",23.2 ng/mL
same,concentration at 8 weeks,"[1]; human, serum, oral, subject ID No. 6, 8 weeks after start of administration",421 ng/mL
same,concentration at 11 weeks,"[1]; human, serum, oral, subject ID No. 6, 11 weeks after start, with fursultiamine",140 ng/mL
same,brain MRI finding during medication,"[1]; subject ID No. 3, 6 weeks after start of administration, epilepsy-like symptom",sign suggestive of Wernicke's encephalopathy
same,brain MRI finding during medication,"[1]; subject ID No. 6, 9 weeks after start of administration",signs suggestive of Wernicke's encephalopathy
